In US9096591B2, “Tetracyclic compounds” (Medivation Technologies, Inc., priority 2007, dated 2015):
Like-named read-outs stand apart in the source and are kept apart here.

Key:
[1] = molecular target: T1, human recombinant adrenergic α1D receptor (Homo sapiens, UniProt P25100); assay: Adrenergic α1D radioligand binding ([3H]Prozosin); parameters: Inhibition of ligand binding, Adren. alpha1D: concentration or dose not given beside the values; details: percent inhibition of specific binding
T1 construct: expressed in transfected cells; host or cells: HEK-293 cells
T1 sequence (P25100 1-572): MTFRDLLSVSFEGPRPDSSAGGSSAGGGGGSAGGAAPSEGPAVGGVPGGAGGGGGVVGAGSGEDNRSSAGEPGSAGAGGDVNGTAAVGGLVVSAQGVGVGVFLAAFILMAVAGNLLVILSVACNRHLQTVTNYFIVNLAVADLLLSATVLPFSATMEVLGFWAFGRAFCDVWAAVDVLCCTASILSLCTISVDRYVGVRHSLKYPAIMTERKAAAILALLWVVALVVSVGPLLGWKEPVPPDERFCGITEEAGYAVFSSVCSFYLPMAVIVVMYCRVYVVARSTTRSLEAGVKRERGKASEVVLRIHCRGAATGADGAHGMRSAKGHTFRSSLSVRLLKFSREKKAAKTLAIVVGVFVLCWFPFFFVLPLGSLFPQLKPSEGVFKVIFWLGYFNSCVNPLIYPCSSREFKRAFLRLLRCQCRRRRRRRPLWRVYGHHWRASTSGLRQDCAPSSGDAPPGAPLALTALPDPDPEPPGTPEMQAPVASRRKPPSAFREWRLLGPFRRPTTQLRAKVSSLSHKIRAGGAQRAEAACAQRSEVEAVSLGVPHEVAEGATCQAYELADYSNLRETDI
Protocol: Compounds of invention were incubated with 0.6 nM [^3H]Prozosin for 60 minutes at 25° C. Non-specific binding was estimated in the presence of 10 μM phentolamine. Receptor proteins were filtered and washed, the filters were then counted to determine [^3H]Prozosin specifically bound. […] Biochemical assay results are presented as the percent inhibition of specific binding in Table 6.

[2] = molecular target: T2, human recombinant adrenergic α2A receptor (Homo sapiens, UniProt P08913); assay: Adrenergic α2A radioligand binding ([3H]MK-912); parameters: Inhibition of ligand binding, Adren. alpha2A: concentration or dose not given beside the values; details: percent inhibition of specific binding
T2 construct: expressed in transfected cells; host or cells: insect Sf9 cells
T2 sequence (P08913 1-465): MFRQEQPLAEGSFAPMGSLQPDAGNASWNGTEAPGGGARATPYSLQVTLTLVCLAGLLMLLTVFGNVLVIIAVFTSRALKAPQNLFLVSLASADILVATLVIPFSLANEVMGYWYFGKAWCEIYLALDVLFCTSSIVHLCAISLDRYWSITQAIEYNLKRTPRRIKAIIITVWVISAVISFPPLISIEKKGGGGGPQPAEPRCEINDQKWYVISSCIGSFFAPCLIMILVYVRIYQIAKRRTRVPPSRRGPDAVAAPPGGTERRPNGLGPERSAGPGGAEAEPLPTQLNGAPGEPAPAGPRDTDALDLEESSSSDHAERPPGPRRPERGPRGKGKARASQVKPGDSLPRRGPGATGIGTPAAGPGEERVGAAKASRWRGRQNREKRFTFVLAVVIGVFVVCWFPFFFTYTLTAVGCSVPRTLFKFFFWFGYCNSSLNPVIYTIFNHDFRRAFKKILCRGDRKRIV
How it was run: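 Membranes from Sf9 cells expressing the receptor were incubated with 1 nM [3H]MK-912 for 60 minutes at 25° C in 50 mM Tris-HCl pH 7.4, 12.5 mM MgCl2, 2 mM EDTA. 10 μM WB-4101 defined non-specific binding. Values are percent inhibition of specific bound radioactivity after filtration.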

[3] = molecular target: T3, Serotonin (5-Hydroxytryptamine) 5-HT7 (Homo sapiens, UniProt P34969); assay: Serotonin 5-HT7 radioligand binding ([3H]LSD); parameters: Inhibition of ligand binding, Ser. 5-HT7: concentration or dose not given beside the values; details: percent inhibition of specific binding
T3 construct: expressed in transfected cells; host or cells: CHO cells
Protocol: Lysergic acid diethylamide (LSD) for 2 hours at 25° C. […] Receptor proteins were filtered and washed, the filters were then counted to determine [^3H]LSD specifically bound. […] Biochemical assay results are presented as the percent inhibition of specific binding in Table 6.

[4] = molecular target: T4, human recombinant histamine H2 receptor (Homo sapiens, UniProt P25021); assay: Histamine H2 radioligand binding ([125I]Aminopotentidine)
T4 construct: expressed in transfected cells; host or cells: CHO-K1 cells
How it was run: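 Test compounds were assessed for their ability to displace radioligand from the human recombinant histamine H2 receptor. Non-specific binding was determined in the presence of 3 μM Tiotidine, and results were expressed as percent inhibition of specific binding, with 1% DMSO serving as the vehicle.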

[5] = 1 μM compound, 0.1 nM [125I]Aminopotentidine, read-out: Histamine Binding H2, percent inhibition of specific binding
[6] = percent inhibition of specific binding, screened at 1 μM, read-out: Inhibition of ligand binding, Hist. H2

T3 sequence (P34969 whole entry): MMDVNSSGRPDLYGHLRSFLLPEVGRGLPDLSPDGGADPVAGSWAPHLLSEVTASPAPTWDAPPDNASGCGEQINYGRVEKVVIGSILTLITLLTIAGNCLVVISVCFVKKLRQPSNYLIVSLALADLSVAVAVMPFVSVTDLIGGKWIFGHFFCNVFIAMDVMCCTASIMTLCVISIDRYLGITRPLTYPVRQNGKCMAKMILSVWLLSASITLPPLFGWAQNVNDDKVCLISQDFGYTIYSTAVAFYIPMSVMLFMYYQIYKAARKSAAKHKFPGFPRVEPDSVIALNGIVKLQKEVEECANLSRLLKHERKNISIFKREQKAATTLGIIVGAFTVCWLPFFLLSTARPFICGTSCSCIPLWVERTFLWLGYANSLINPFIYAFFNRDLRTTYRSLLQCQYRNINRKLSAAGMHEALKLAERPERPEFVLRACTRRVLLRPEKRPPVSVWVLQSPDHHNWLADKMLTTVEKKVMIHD
T4 sequence (P25021 whole entry): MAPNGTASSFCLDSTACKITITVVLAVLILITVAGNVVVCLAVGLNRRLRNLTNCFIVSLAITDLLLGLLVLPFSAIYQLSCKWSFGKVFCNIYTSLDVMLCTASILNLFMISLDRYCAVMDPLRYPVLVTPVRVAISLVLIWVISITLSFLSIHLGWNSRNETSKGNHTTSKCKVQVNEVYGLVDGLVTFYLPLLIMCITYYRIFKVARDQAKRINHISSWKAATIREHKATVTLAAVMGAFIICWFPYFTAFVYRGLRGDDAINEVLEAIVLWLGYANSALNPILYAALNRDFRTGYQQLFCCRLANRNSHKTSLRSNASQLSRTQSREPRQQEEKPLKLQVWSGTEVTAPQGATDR

SMILES | Inhibition of ligand binding, Adren. alpha1D [1] [%] | Inhibition of ligand binding, Adren. alpha2A [2] [%] | Inhibition of ligand binding, Ser. 5-HT7 [3] [%] | inhibition at 1 µM [4, 5] [%] | inhibition at 1 µM [4, 6] [%] | inhibition at 0.3 µM ([4]; 0.3 μM compound, 0.1 nM [125I]Aminopotentidine, read-out: Histamine Binding H2, percent inhibition of specific binding) [%]
CCN1CCc2c(c3ccccc3n2CCc2ccc(C)cc2)C1 [Compound 3, 2-ethyl-2,3,4,5-tetrahydro-5-(4-methylphenethyl)-1H-pyrido[4,3-b]indole] | 48 | 86 | 81 | 51 | 51 | –
CCN1CCc2c(c3ccccc3n2CCc2ccccc2)C1 [Compound 4, 2-ethyl-2,3,4,5-tetrahydro-5-phenethyl-1H-pyrido[4,3-b]indole] | 56 | 82 | 88 | 51 | 51 | 34
CCN1CCc2c(c3ccccc3n2CCc2ccncc2)C1 [Compound 5] | 21 | 20 | 37 | 2 | 2 | –
CCN1CCc2c(c3ccccc3n2CCc2ccccn2)C1 [Compound 6] | 6 | 20 | 39 | -3 | -3 | –
CN1CCc2c(c3ccccc3n2CCc2ccncc2)C1 [Compound 10, 2,3,4,5-tetrahydro-2-methyl-5-(2-(pyridin-4-yl)ethyl)-1H-pyrido[4,3-b]indole] | 19 | 33 | 73 | 12 | 12 | –
CCN1CCc2c(c3ccccc3n2Cc2ccccc2)C1 [Compound 16, 5-benzyl-2-ethyl-2,3,4,5-tetrahydro-1H-pyrido[4,3-b]indole] | 12 | 10 | 14 | 3 | 3 | –
Cc1ccc(Cn2c3c(c4ccccc42)CN(C)CC3)cn1 [Compound 17, 2,3,4,5-tetrahydro-2-methyl-5-((6-methylpyridin-3-yl)methyl)-1H-pyrido[4,3-b]indole] | −7 | 56 | 7 | -2 | -2 | –
CCN1CCc2c(c3cc(C)ccc3n2CCc2ccccn2)C1 [Compound 23, 2-ethyl-2,3,4,5-tetrahydro-8-methyl-5-(2-(pyridin-2-yl)ethyl)-1H-pyrido[4,3-b]indole] | 61 | 57 | 94 | 28 | 28 | –
CCN1CCc2c(c3cc(C)ccc3n2CCc2ccc(C)nc2)C1 [Compound 31, 2-ethyl-2,3,4,5-tetrahydro-8-methyl-5-(2-(6-methylpyridin-3-yl)ethyl)-1H-pyrido[4,3-b]indole] | 70 | 66 | 85 | 34 | 34 | –
CN1CCc2c(c3cc(I)ccc3n2CCc2ccccc2F)C1 [Compound 89, 5-(2-fluorophenethyl)-2,3,4,5-tetrahydro-8-iodo-2-methyl-1H-pyrido[4,3-b]indole] | 82 | 98 | 100 | 88 | 88 | –
Cc1ccc2c(c1)c1c(n2Cc2ccccc2)CCN(C)C1 [Compound 137, 5-benzyl-2,3,4,5-tetrahydro-2,8-dimethyl-1H-pyrido[4,3-b]indole] | 12 | 15 | 15 | 45 | 45 | –
CCN1CCc2c(c3cc(C)ccc3n2Cc2ccc(C)nc2)C1 [Compound 138, 2-ethyl-2,3,4,5-tetrahydro-8-methyl-5-((6-methylpyridin-3-yl)methyl)-1H-pyrido[4,3-b]indole] | 33 | 31 | 23 | 27 | 27 | –
Cc1ccc2c(c1)c1c(n2Cc2ccc(C)nc2)CCN(C)C1 [Compound 139, 2,3,4,5-tetrahydro-2,8-dimethyl-5-((6-methylpyridin-3-yl)methyl)-1H-pyrido[4,3-b]indole] | 25 | 50 | 74 | – | 7 | –
CCN1CCc2c(c3cc(C)ccc3n2Cc2ccccc2)C1 [Compound 140, 5-benzyl-2-ethyl-2,3,4,5-tetrahydro-8-methyl-1H-pyrido[4,3-b]indole] | 14 | 17 | 2 | 45 | 45 | –
Cc1ccc2c(c1)c1c(n2CCN2CCCC2)CCN(C)C1 [Compound 221, 2,3,4,5-tetrahydro-2,8-dimethyl-5-(2-(pyrrolidin-1-yl)ethyl)-1H-pyrido[4,3-b]indole] | 30 | 37 | 36 | 52 | 52 | –
Cc1ccc2c(c1)c1c(n2CCC(=O)N2CCC(N)CC2)CCN(C)C1 [Compound 231, 1-(4-aminopiperidin-1-yl)-3-(1,2,3,4-tetrahydro-2,8-dimethylpyrido[4,3-b]indol-5-yl)propan-1-one] | 21 | 29 | 0 | 4 | 4 | –
